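The compound was tested at five concentrations on cells cultured in 96-well plates, with a 48-hour exposure period. Here, GI50 denotes the concentration required for 50% inhibition of growth.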 Calls of active or inactive are those of the source. No stated cut-off is given here; in the data, active = GI50 up to about 1.1 µM and inactive = higher.
Columns and labels:
Assay in all cases: DTP human tumour cell line panel, 48 h
786-0 = tested on: 786-0
A549 = tested on: A549
BT-549 = tested on: BT-549
DU-145 = tested on: DU-145
HCC 2998 = tested on: HCC 2998
LOX IMVI = tested on: LOX IMVI
M14 = tested on: M14
MCF7 = tested on: MCF7
NCI/ADR-RES = tested on: NCI/ADR-RES
OVCAR-8 = tested on: OVCAR-8
SF-539 = tested on: SF-539
SK-MEL-28 = tested on: SK-MEL-28
SK-MEL-2 = tested on: SK-MEL-2
SNB-75 = tested on: SNB-75
T47D = tested on: T47D
U-251 = tested on: U-251
UO-31 = tested on: UO-31
K562 = tested on: K562
MOLT-4 = tested on: MOLT-4
NCI-H226 = tested on: NCI-H226

Measured: GI50

Cc1cc2c(SCc3ccccc3Cl)nc(N)nc2nc1C
inactive: 786-0 > 100 µM | A549 > 100 µM | BT-549 > 100 µM | DU-145 > 100 µM | HCC 2998 > 100 µM | LOX IMVI > 100 µM | M14 > 100 µM | MCF7 > 100 µM | NCI/ADR-RES > 100 µM | OVCAR-8 > 100 µM | SF-539 > 100 µM | SK-MEL-28 > 100 µM | SK-MEL-2 > 100 µM | SNB-75 > 100 µM | T47D > 100 µM | U-251 > 100 µM | UO-31 1.79 µM

COc1cc2c(cc1O)C(=O)O[C@@H]1CC=C3CCN(C)[C@H]3[C@H]21
inactive: 786-0 > 25 µM | A549 > 25 µM | BT-549 > 25 µM | DU-145 > 25 µM | HCC 2998 > 25 µM | K562 > 25 µM | M14 > 25 µM | MCF7 > 25 µM | MOLT-4 > 25 µM | NCI-H226 > 25 µM | NCI/ADR-RES > 25 µM | OVCAR-8 > 25 µM | SK-MEL-28 > 25 µM | SK-MEL-2 > 25 µM | SNB-75 > 25 µM | T47D > 25 µM | U-251 > 25 µM | UO-31 > 25 µM

CC(=O)NC1C(Sc2ncn(C3OC(CO)C(O)C(O)C3NC(C)=O)n2)OC(CO)C(O)C1O (stereo not drawn)
inactive: 786-0 > 100 µM | A549 > 100 µM | BT-549 > 100 µM | DU-145 > 100 µM | HCC 2998 > 100 µM | LOX IMVI > 100 µM | M14 > 100 µM | MCF7 > 100 µM | MOLT-4 > 100 µM | NCI/ADR-RES > 100 µM | OVCAR-8 > 100 µM | SF-539 > 100 µM | SK-MEL-28 > 100 µM | SK-MEL-2 > 100 µM | T47D > 100 µM | U-251 > 100 µM

[O-][S+](Nc1ccccc1)c1ccc(Cl)cc1 (stereo not drawn)
inactive: 786-0 > 100 µM | A549 48.4 µM | BT-549 32.6 µM | DU-145 91.4 µM | HCC 2998 69.7 µM | K562 > 100 µM | LOX IMVI > 100 µM | M14 > 100 µM | MCF7 > 100 µM | MOLT-4 31.4 µM | NCI-H226 > 100 µM | NCI/ADR-RES 64.9 µM | OVCAR-8 > 100 µM | SF-539 18.9 µM | SK-MEL-28 > 100 µM | SK-MEL-2 > 100 µM | T47D 50.1 µM | U-251 23.6 µM | UO-31 44.8 µM

COC(=O)/C=C(C)/C=C\COC1CCCCO1 (stereo not drawn)
inactive: 786-0 > 100 µM | A549 > 100 µM | BT-549 > 100 µM | DU-145 > 100 µM | HCC 2998 > 100 µM | K562 > 100 µM | LOX IMVI > 100 µM | M14 > 100 µM | MCF7 > 100 µM | MOLT-4 > 100 µM | NCI-H226 > 100 µM | NCI/ADR-RES > 100 µM | OVCAR-8 > 100 µM | SK-MEL-28 > 100 µM | SK-MEL-2 > 100 µM | SNB-75 > 100 µM | T47D > 100 µM | U-251 > 100 µM | UO-31 > 100 µM

NNC(=O)c1cc([N+](=O)[O-])ccc1NC(=O)C12CC3CC(CC(C3)C1)C2
inactive: 786-0 11.7 µM | A549 17.8 µM | BT-549 26.6 µM | DU-145 20 µM | HCC 2998 10.5 µM | K562 7.48 µM | LOX IMVI 2.93 µM | M14 13 µM | MCF7 23.1 µM | MOLT-4 3.32 µM | NCI-H226 4.62 µM | NCI/ADR-RES 15.9 µM | OVCAR-8 14.9 µM | SF-539 13.5 µM | T47D 10 µM | U-251 6.92 µM | UO-31 7.98 µM

S=C(Nc1ccccc1)c1ccc(CN2CCCCC2)s1
inactive: 786-0 17.6 µM | A549 29.6 µM | BT-549 21.4 µM | DU-145 60.1 µM | HCC 2998 21.8 µM | K562 13.8 µM | LOX IMVI 17.7 µM | M14 16 µM | MCF7 18 µM | MOLT-4 16.1 µM | NCI/ADR-RES 28.6 µM | OVCAR-8 15.6 µM | SF-539 37.8 µM | SK-MEL-28 16.2 µM | SK-MEL-2 20.5 µM | T47D 26.4 µM | U-251 19 µM | UO-31 16.2 µM

COC(=O)C12CCCN1CCC2
inactive: 786-0 > 100 µM | A549 > 100 µM | BT-549 > 100 µM | DU-145 > 100 µM | HCC 2998 > 100 µM | K562 > 100 µM | LOX IMVI > 100 µM | M14 > 100 µM | MCF7 > 100 µM | MOLT-4 > 100 µM | NCI-H226 > 100 µM | NCI/ADR-RES > 100 µM | SK-MEL-28 > 100 µM | SK-MEL-2 > 100 µM | SNB-75 > 100 µM | T47D > 100 µM | U-251 > 100 µM | UO-31 > 100 µM

C[P+](c1ccccc1)(c1ccc(Cl)cc1)c1ccc(Cl)cc1
inactive: 786-0 31.3 µM | A549 32.4 µM | BT-549 21.3 µM | DU-145 18.4 µM | HCC 2998 8.61 µM | K562 11.2 µM | LOX IMVI 11.1 µM | M14 11.6 µM | MCF7 26.9 µM | NCI-H226 24.3 µM | NCI/ADR-RES > 100 µM | OVCAR-8 14.7 µM | SF-539 19.8 µM | SK-MEL-28 10 µM | SK-MEL-2 19.9 µM | SNB-75 14.4 µM | T47D 7.6 µM | U-251 16.3 µM | UO-31 38 µM

COc1ccc(/N=C2/C(=N/c3ccc(OC)cc3)N(c3ccccc3)C(=S)N2N=C=C2Sc3ccccc3N2C)cc1
inactive: 786-0 > 100 µM | A549 > 100 µM | BT-549 > 100 µM | DU-145 > 100 µM | HCC 2998 > 100 µM | K562 > 100 µM | M14 57.4 µM | MCF7 > 100 µM | MOLT-4 > 100 µM | NCI-H226 > 100 µM | NCI/ADR-RES > 100 µM | OVCAR-8 > 100 µM | SF-539 > 100 µM | SK-MEL-28 > 100 µM | SK-MEL-2 > 100 µM | T47D > 100 µM | U-251 88.7 µM | UO-31 > 100 µM

CCOS(C)(=O)=O [METHANESULFONIC ACID ETHYL ESTER]
inactive: 786-0 > 100 µM | A549 > 100 µM | BT-549 > 100 µM | DU-145 > 100 µM | HCC 2998 > 100 µM | K562 > 100 µM | LOX IMVI > 100 µM | M14 > 100 µM | MCF7 > 100 µM | MOLT-4 > 100 µM | NCI-H226 > 100 µM | NCI/ADR-RES > 100 µM | OVCAR-8 > 100 µM | SF-539 > 100 µM | SK-MEL-28 > 100 µM | SK-MEL-2 > 100 µM | T47D > 100 µM | U-251 > 100 µM | UO-31 > 100 µM

Reference: ChEMBL document CHEMBL1201862, “PubChem BioAssay data set” (2004)
